Measurements reported in ChEMBL document CHEMBL1156243.
Calls of active or inactive are those of the source. Unless noted, the calls are words filed in the database; no cut-off is given here.

What was measured:
[1] = Inhibition of amyloid beta (1 to 42) aggregation […] after 48 hrs by fluorescence imaging
[2] = Binding affinity to amyloid beta (1 to 42) fibrils by change in fluorescence at 100 uM after 10 mins
[3] = Binding affinity to amyloid beta (1 to 42) oligomers by fluorescence quenching after 30 mins
[4] = Binding affinity to amyloid beta (1 to 42) oligomers by change in fluorescence at 100 uM after 10 mins
[5] = Binding affinity to amyloid beta (1 to 42) fibrils by fluorescence quenching after 30 mins
[6] = Binding affinity to amyloid beta (1 to 42) oligomers by change in fluorescence at 100 uM after 2 mins
[7] = Binding affinity to amyloid beta (1 to 42) fibrils by change in fluorescence at 100 uM after 2 mins

| inhibition [1] | Activity [2] | Activity [3] | Activity [4] | Activity [5] | Activity [6] | Activity [7] | SMILES |
| --- | --- | --- | --- | --- | --- | --- | --- |
| inactive | Active | Active | Active | inactive |  |  | c1ccc2[nH]ccc2c1 |
|  |  |  |  |  | Active | Active | O=S(=O)(O)c1cccc2c(-c3ccc(Nc4ccccc4)c4c(S(=O)(=O)O)cccc34)ccc(Nc3ccccc3)c12 |
